{
  "source": "patent US10759994B2",
  "about": "“Luminogenic transition metal-based pyridyl complex and its use” (City University of Hong Kong, priority 2016, dated 2020)",
  "key": {"[1]": {"assay": "SPANC reaction kinetics with BCN—OH by UV/Vis absorption spectroscopy", "format": "physicochemical", "details": "reaction with BCN—OH in MeOH at 298 K", "procedure": "The reactivity of the iridium(III) and ruthenium(II) pyridyl complexes toward a strained alkyne derivative BCN—OH in MeOH at 298 K was studied. The second-order rate constants (k2) of the strain-promoted alkyne-nitrone cycloaddition (SPANC) reaction of complexes 1a-5b are shown in Tables 3 and 4, respectively. The k2 values of the iridium(III) complexes 1a, 2a and 3a and the ruthenium(II) complexes 1b, 2b, 3b, 4b, and 5b were determined to be 0.116-0.238 and 0.078-3.06 M^−1 s^−1, respectively, which are about 1.95-76.5 times that of the free ligand bpy-nitrone-Me (k2=0.040 M^−1 s^−1). This is attributed to the electron-withdrawing effects of the positively-charged metal centers. […] The accelerated reaction kinetics is assumed to originate from the presence of the more electron-withdrawing phenyl ring at the N-position of the nitrone moiety. Thus, the accelerated reaction kinetics render complexes 1a-5b highly advantageous bioorthogonal probes for biomolecules modified with a strained alkyne moiety.\nMore specifically, the SPANC reaction kinetics of complexes 1a 5b was studied by UV/Ms absorption spectroscopy. For the ligand bpy-nitrone-Me and the iridium(III) complexes 1a-3a, the k2 values were measured under pseudo first order conditions with a 25- to 100-fold excess of BCN—OH in MeOH at 298 K. The reaction process was followed by monitoring the exponential decay of the absorbance at 306-342 nm upon addition of BCN—OH. The final concentrations of the nitrone compounds were 10 μM and those of BCN—OH ranged from 0.25 to 1.0 mM. For the ruthenium(II) complexes 1b-5b, the k2 values were determined under pseudo first order conditions with a 50- to 200-fold excess of BCN—OH in MeOH at 298 K. The reaction process was monitored by following the exponential decay of the absorbance at 329 nm. The final concentrations of the complexes were 10 μM and those of BCN—OH ranged from 0.5 to 2.0 mM. The data were fitted to a single-exponential equation to give the observed rate constants (kobs), which were plotted against the concentrations of BCN—OH to obtain the k2 from the slope of the plots."}, "[2]": {"details": "aerated aqueous solution, λex=455 nm; cited from earlier work"}, "HeLa cells": {"system": "HeLa cells", "format": "cell-based", "details": "BCN-C10 pretreatment (200 μM, 1 h), complex 40 μM", "text": "The results particularly highlight the potential of the luminogenic transition metal-based polypyridyl complexes of the present invention for bioorthogonal labeling. […] Importantly, although the cellular uptake of complex 2b was substantially higher, it was much less cytotoxic than complex 4b toward the pretreated cells. […] The results also highlight the potential therapeutic use of intracellular bioorthogonal coupling reactions in activating the cytotoxicity of metallo drugs.\nFor determining the cytotoxicity of complexes 1 b 5b, HeLa cells were seeded in a 96-well flat-bottomed microplate (about 10,000 cells well^−1) in growth medium (100 μL) and incubated at 37° C. under a 5% CO2 atmosphere for 24 h. The cells were then incubated in either blank medium or growth medium/DMSO (99:1, v/v) (100 μL) containing BCN-C10 (200 μM) in the dark at 37° C. under a 5% CO2 atmosphere for 1 h. The medium was then removed, the cell layer was washed with PBS, and further incubated in growth medium/DMSO (99:1, v/v) (100 μL) containing the ruthenium(II) complexes (40 μM) in the dark at 37° C. under a 5% CO2 atmosphere for 6, 12, or 24 h. Wells containing untreated cells were used as blank control. The microplate was incubated at 37° C. under a 5% CO2 atmosphere for another 4 h. The growth medium was then removed, and DMSO (200 μL) was added to each well. The microplate was further incubated for 15 min. The absorbance of the solutions at 570 nm was measured with a SPECTRAmax 340 microplate reader."}},
  "data": [
    {"smiles": "Cc1ccnc(-c2cc(C=[N+](C)[O-])ccn2)c1", "note": "[bpy-nitrone-Me, 4-((Methyl(oxido)imino)methyl)-4′-methyl-2,2′-bipyridine]", "values": [
      {"measurement": "Second-order rate constants (k2)", "setting": "[1]", "value": 0.040, "unit": "M⁻¹ s⁻¹"}
    ]},
    {"smiles": "[Cl][Ru][Cl].c1ccc(-c2ccccn2)nc1.c1ccc(-c2ccccn2)nc1.c1ccc(-c2ccccn2)nc1", "note": "[[Ru(bpy)3]Cl2]", "values": [
      {"measurement": "ϕem of standard solution", "setting": "[2]", "value": 0.028}
    ]},
    {"smiles": "Cc1ccnc(-c2cc(/C=[N+](/C)[O-])ccn2)c1.F[P-](F)(F)(F)(F)F.F[P-](F)(F)(F)(F)F.[Ru+2].c1ccc(-c2ccccn2)nc1.c1ccc(-c2ccccn2)nc1", "note": "[Complex 1b, [Ru(bpy)2(bpy-nitrone-Me)](PF6)2]", "values": [
      {"measurement": "Cell viability with BCN-C10 pretreatment", "setting": "HeLa cells", "value": "maintained good biocompatibility"}
    ]}
  ]
}
